Results on two compounds are retold here after patent US20100297256A1, “METHODS AND COMPOSITIONS FOR INHIBITING INTEGRINS USING TELLURIUM-CONTAINING COMPOUNDS” (priority 2007, published 2010).

Series [1] deals with SVEC4-10 cells. Put plainly: "Scratch" wound closure assay. The format is cell-based, murine. The conditions noted are these: 1 μg/ml, ECGS 100 μg/ml, cells counted at 12 hours. Here is the method: Confluent Svec4-10 monolayers in 6 mm plates were “scratch” wounded using the tip of a universal blue pipette tip and rinsed with PBS. AS101 or SAS (1 μg/ml final concentration) or ECGS (100 μg/ml) were added to the plates containing serum-free DMEM. The plates were incubated at 37° C. and fixed and stained at several time points. Migrated cells at 12 hours were counted along the scratch. The centers of plates at all times were photographed for presented data. The experiment was repeated three times.

Series [2] concerns SVEC4-10 cells. Put plainly: Boyden chamber migration assay. Particulars: 6 hours. The format is cell-based, murine. Here is the method: Migration assay was performed in a 48-well microchemotaxis chamber. Polyester membranes with 8 μm pores were coated with 0.1 mg/ml of collagen I in DMEM and then dried for 1 hour. B16F10 and Svec4-10 cells were harvested using TE and resuspended in DMEM containing 0.1% BSA. The bottom chamber was loaded with Svec4-10 supernatant/DMEM (1:5) containing varying concentration of AS101 or SAS and the filter was laid over the treatment solutions. Non-diluted Svec4-10 supernatant was used as a positive control. The upper wells were then loaded with 30,000 cells, the chamber was incubated at 37° C. for 6 hours and the filters were fixed and stained using Diff-Quick. The cells that migrated through the filter were quantified by counting the center of each well in a 36-box grid at ×20 using an Olympic CK2 microscope. Each condition was studied in triplicate wells, and each experiment was performed three times.

Series [3] deals with SVEC4-10 endothelial cells. Put plainly: Tube formation assay, SVEC4-10. The format is cell-based, murine. Particulars: SVEC4-10 on Matrigel, 3 hours. As for the experimental part:
Plates (48 wells) were coated with 150 μl of Matrigel and incubated at 37° C. for 1 hour to promote gelling. Svec4-10 or HUVEC cells (40,000 cells) in 0.5 ml of serum-free DMEM with varying concentration of AS101 or SAS were added to each well. For positive control, ECGS was added at a concentration of 50 μg/ml. All samples were performed in sextuplicate. After 3 hours incubation, the plates were fixed with methanol and stained with crystal violet. Randomly chosen fields were photographed and density of tube formation was analyzed by imageJ.

For another series, the system named is BV-2 cells. Briefly: Cell attachment assay, BV-2. The format is cell-based, murine.
The next series relates to B16F10 melanoma cells. Briefly: Tumor growth in vivo on CAM. More on the design: species or system murine. Particulars: 5 μg daily, 7 days. Here is the method:
B16F10 melanoma cells (10^6 cells/[…]) in Matrigel were added directly onto the CAM of the 7-days-old embryo (embryos were prepared as described hereinabove). AS101 and SAS (5 μg) were added daily. After a 7-days incubation, with treatment performed each day (PBS, AS101 or SAS), tumors were excised and weighed. Formalin-fixed tumor tissues were paraffin embedded, sectioned at 10 μm, and stained with hematoxylin and eosin (H&E) for examination of tumor cell proliferation and vessel density.

A further series concerns aortic arches. Briefly: Chick aortic arch assay. The class given is cell-based. The conditions noted are these: for vessel length and number, sprouting induced by ECGS / length of tubes exiting from arches / number of tubes exiting from arches: 0.5-5 μg/ml; for vessel length and number, sprouting induced by ECGS: 100 μg/ml ECGS; for length of tubes exiting from arches / number of tubes exiting from arches: without ECGS; for toxicity in aortic arch assay (re-sprouting after washing): data not shown. As for the experimental part:
Aortic arches were removed from fertilized chicken eggs at day 13 of embryonic development. The eggs were cracked into a sterile 100 mm culture dish. The embryo was removed from its surroundings by cutting away the associated membranes and yolk sac. The chicken embryo was placed ventral side up to surgically expose the heart and aortic arches. The heart and aortic arch were removed and placed into a sterile culture dish containing PBS to which 1% penicillin-streptomycin was added. Arches, from which the surrounding adventitia had been removed, were cut into 0.8 mm sections. Each arch was placed onto drop of Matrigel that was deposited on the bottom of a 48-well culture plate just prior to adding the ring. An additional drop of ice-cold Matrigel was spread on each aortic arch. Matrigel was allowed to solidify before adding 500 μl of human endothelial-SFM basal growth medium. […] Quantitative evaluation of tubule formation was performed by a blinded observer on a scale of 1-3 (least to maximum sprouting).

For another series, the system named is FAK. Put plainly: Western blot analysis of FAK phosphorylation. The format is cell-based, murine. Here is the method: Cell lysates (20 μg) were diluted with an equal volume of 2×SDS (sodium dodecyl sulfate) sample buffer and separated according to size by SDS-PAGE (SDS-polyacrylamide gel electrophoresis). Proteins were transferred to a polyvinylidene difluoride membrane via electroelution by a transfer system (Bio-Rad), blocked for 1 hour by blocking buffer (5% skim milk in PBS with 0.05% Tween 20) and incubated for 2 hours in room temperature or for overnight in 4° C. with primary antibodies diluted in blocking buffer. Membranes were washed several times in PBS with 0.05 Tween (PBS-T) and incubated for 1 hour with horseradish peroxidase-conjugated anti-mouse or anti-rabbit antibodies (diluted 1:10,000). Proteins were detected by ECL Western Blotting Detection Reagents according to the instructions of the manufacturer (PIERCE).
In general terms: Immunoblotting shows a protein as a band on a membrane.

[4] abbreviates: B16F10, 5 to 10 minutes incubation.
[5] abbreviates: LAN-1, 5 to 10 minutes incubation.
[6] abbreviates: SVEC4-10, 5 to 10 minutes incubation.

Structures are written as SMILES.

Take `Cl[TeH]1(Cl)(Cl)OCCO1` [AS101, ammonium trichloro(dioxyethylene-O,O′)tellurate]: the “ECGS-induced scratch wound repair by cell migration” value with SVEC4-10 cells [1] is “reduce ECGS-induced scratch wound repair”. Also, in the series with SVEC4-10 cells [2], the “directional migration of murine endothelial cells through the membrane” value is “inhibited the directional migration”. In addition, the “number of tubes formed” value in series [3] was “reduced the number of tubes formed”. In addition, the “cell attachment to fibronectin” value with BV-2 cells is “inhibited cell attachment to fibronectin”. The “tumor growth and weight on chorioallantoic membrane” value in the series on B16F10 melanoma cells is “reduced tumor growth and weight”. For the same compound, in the series with aortic arches, the “vessel length and number, sprouting induced by ECGS” value is “inhibit the vessel length and number”; the “length of tubes exiting from arches” value is “reduced their length”; the “number of tubes exiting from arches” value was “did not inhibit the number of tubes exiting from arches”; the “toxicity in aortic arch assay (re-sprouting after washing)” value is recorded as “non-toxic”. For the same compound, the “ECGS-induced FAK phosphorylation at Y397” value in the series with FAK (setting [4]) is “inhibition of ECGS-induced FAK phosphorylation at Y397”. Further, the “ECGS-induced FAK phosphorylation at Y397” value in the series on FAK (setting [5]) is recorded as “inhibition of ECGS-induced FAK phosphorylation at Y397”. The “ECGS-induced FAK phosphorylation at Y397” value with FAK (setting [6]) is recorded as “inhibition of ECGS-induced FAK phosphorylation at Y397”.
Turning to `O=C1O[Te]23OC(=O)C(O2)C2O[Te]4(OC(=O)C(O4)C1O3)OC2=O` [SAS, [TeO4(COCH)2]2], the “ECGS-induced scratch wound repair by cell migration” value in the series with SVEC4-10 cells [1] is listed as “reduce ECGS-induced scratch wound repair”. The “directional migration of murine endothelial cells through the membrane” value in the series on SVEC4-10 cells [2] is given as “inhibited the directional migration”. In series [3], the “number of tubes formed” value is given as “reduced the number of tubes formed”. For the same compound, in the series on BV-2 cells, the “cell attachment to fibronectin” value is listed as “inhibited cell attachment to fibronectin”. Moreover, the “tumor growth and weight on chorioallantoic membrane” value in the series on B16F10 melanoma cells was “reduced tumor growth and weight”. For the same compound, in the series with aortic arches, the “vessel length and number, sprouting induced by ECGS” value was “inhibit the vessel length and number”; the “length of tubes exiting from arches” value was “reduced their length”; the “number of tubes exiting from arches” value is “did not inhibit the number of tubes exiting from arches”; the “toxicity in aortic arch assay (re-sprouting after washing)” value is “non-toxic”. For the same compound, the “ECGS-induced FAK phosphorylation at Y397” value in the series on FAK (setting [4]) is given as “inhibition of ECGS-induced FAK phosphorylation at Y397”. In addition, the “ECGS-induced FAK phosphorylation at Y397” value with FAK (setting [5]) is given as “inhibition of ECGS-induced FAK phosphorylation at Y397”. Further, the “ECGS-induced FAK phosphorylation at Y397” value with FAK (setting [6]) is recorded as “inhibition of ECGS-induced FAK phosphorylation at Y397”.
